According to patent US10351547B2, “Somatostatin modulators and uses thereof” (priority 2016, dated 2019):
Read-outs that look alike come from different tables or passages of the source.

Target: human SSTR2 (Homo sapiens (Human), UniProt P30874)
Experiment: Human SSTR2 intracellular cAMP functional assay for agonists (HTRF)
Type: cell-based
Procedure, shortened: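 Cells bearing human SSTR2 exposed to compound for 20 minutes at 37 °C; after lysis, cAMP measured by time-resolved fluorescence (HTRF) and converted via a standard curve. EC50 calculated from cAMP versus compound concentration.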

[1] = CHO-K1 cells stably expressing human SSTR2, NKH477-stimulated cAMP, read-out: EC50 (inhibition of cAMP activities via human SST2R)

Chain of human SSTR2 (P30874 whole entry): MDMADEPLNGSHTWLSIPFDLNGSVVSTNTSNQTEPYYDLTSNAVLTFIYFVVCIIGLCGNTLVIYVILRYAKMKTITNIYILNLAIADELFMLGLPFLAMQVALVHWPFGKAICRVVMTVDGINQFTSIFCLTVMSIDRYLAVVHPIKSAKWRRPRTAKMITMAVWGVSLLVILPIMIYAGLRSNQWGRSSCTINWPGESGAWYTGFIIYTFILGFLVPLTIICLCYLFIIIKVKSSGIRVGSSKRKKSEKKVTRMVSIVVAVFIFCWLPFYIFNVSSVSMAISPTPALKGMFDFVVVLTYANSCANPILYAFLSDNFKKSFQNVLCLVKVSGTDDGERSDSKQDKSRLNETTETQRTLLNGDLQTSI

SMILES | EC50 [1] | EC50
Cc1cc(F)cc(-c2cnc3ccc(-c4cc(F)cc5[nH]c(=O)[nH]c45)nc3c2N2CCC(N)CC2)c1 [3-3, 4-[8-(4-aminopiperidin-1-yl)-7-(3-fluoro-5-methylphenyl)-1,5-naphthyridin-2-yl]-6-fluoro-2,3-dihydro-1H-1,3-benzodiazol-2-one] | < 10 nM | 
Cc1cc(F)cc(-c2cnc3ccc(-c4ccc5[nH]c(=O)[nH]c5c4)nc3c2N2CCC(N)CC2)c1 [3-4, 5-[8-(4-aminopiperidin-1-yl)-7-(3-fluoro-5-methylphenyl)-1,5-naphthyridin-2-yl]-2,3-dihydro-1H-1,3-benzodiazol-2-one] | < 10 nM | 
Cc1cc(F)cc(-c2cnc3ccc(-c4cc(F)c5[nH]c(=O)[nH]c5c4)nc3c2N2CCC(N)CC2)c1 [3-5, 6-[8-(4-aminopiperidin-1-yl)-7-(3-fluoro-5-methylphenyl)-1,5-naphthyridin-2-yl]-4-fluoro-2,3-dihydro-1H-1,3-benzodiazol-2-one] | < 10 nM | 
NC1CCN(c2c(-c3cc(F)cc(F)c3)cnc3ccc(-c4cc(F)c5[nH]c(=O)[nH]c5c4)nc23)CC1 [3-9, 6-[8-(4-aminopiperidin-1-yl)-7-(3,5-difluorophenyl)-1,5-naphthyridin-2-yl]-4-fluoro-2,3-dihydro-1H-1,3-benzodiazol-2-one] | < 10 nM | 
N#Cc1cccc(-c2cnc3ncc(-c4cc(F)cc(F)c4)c(N4CCC(N)CC4)c3c2)c1O [4-1, 3-[5-(4-aminopiperidin-1-yl)-6-(3,5-difluorophenyl)-1,8-naphthyridin-3-yl]-2-hydroxybenzonitrile] |  | 10 to 100 nM
Cc1cc(F)cc(-c2cnc3ncc(-c4cccc(C#N)c4O)cc3c2N2CCC(N)CC2)c1 [4-2, 3-[5-(4-aminopiperidin-1-yl)-6-(3-fluoro-5-methylphenyl)-1,8-naphthyridin-3-yl]-2-hydroxybenzonitrile] | < 10 nM | 
Cc1cc(F)cc(-c2cnc3ncc(-c4cc(F)cc(C#N)c4O)cc3c2N2CCC(N)CC2)c1 [4-3, 3-[5-(4-aminopiperidin-1-yl)-6-(3-fluoro-5-methylphenyl)-1,8-naphthyridin-3-yl]-5-fluoro-2-hydroxybenzonitrile] | < 10 nM | 
Cc1cc(Cl)cc(-c2cnc3ncc(-c4cccc(C#N)c4O)cc3c2N2CCC(N)CC2)c1 [4-4, 3-[5-(4-aminopiperidin-1-yl)-6-(3-chloro-5-methylphenyl)-1,8-naphthyridin-3-yl]-2-hydroxybenzonitrile] | < 10 nM | 
